{"source": "patent US8729047B2", "about": "“Compositions for inhibiting redox-sensitive GTPases” (Board of Regents, The University of Texas System, priority 2010, dated 2014)", "key": {"[1]": {"molecular_target": "T1, RhoA (Rattus norvegicus, UniProt P61589)", "T1 construct": "endogenous in cells; host or cells: A7r5 cells (rat aortic vascular smooth muscle)", "T1 sequence (P61589 whole entry)": "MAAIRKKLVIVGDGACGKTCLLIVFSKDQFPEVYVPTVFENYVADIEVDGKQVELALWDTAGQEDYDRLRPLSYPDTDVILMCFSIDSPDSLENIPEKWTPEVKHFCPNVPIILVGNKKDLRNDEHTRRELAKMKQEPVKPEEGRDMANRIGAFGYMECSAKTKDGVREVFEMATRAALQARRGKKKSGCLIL", "experiment": "Co-IP ESI-MS of thioguanine nucleotide disulfide adduct in A7r5 cells", "assay_type": "cell-based", "conditions": "for thioguanine nucleotide-RhoA disulfide adduct (Cys20): FIGS. 21, 22", "procedure": "(§1) FIG. 21. Detection of 6-TGNP adduct from A7r5 and T cells. Experimental procedures using A7r5 (A and B) and T (C and D) cells, respectively, were identical to those of the experiments described in FIG. 19 and previous studies (Tiede et al. J. Clin. Invest. 111, 1133-1145 (2003); and Poppe et al. J. Immunol. 176, 640-651 (2006)). The cell extract was incubated with a monoclonal RhoA antibody (A and B) or a Rac1 antibody (C and D) coupled with resin. Resin was collected by centrifugation (5,000×g, 10 min), which was suspended in 50% methanol:0.1% formic acid. The protein portion was separated by brief centrifugation (3,000×g for 5 min), resuspended in a buffer containing 10 mM EDTA and 5 mM phosphate (pH 7.5), digested with trypsin for 10 h, and analyzed with MS. The MS peak at 1476.6 Da represents peptide-6-TGDP adduct; TC^20LLIVFSK-6-TGDP.\nFIG. 22. Detection of 8-TGNP adduct from A7r5 cells. […] The indicated MS peak at 1476.6 Da represents peptide-8-TGDP adduct; TC^20LLIVFSK-8-TGDP (SEQ ID NO:4). The molecular weight of the peptide-8-TGDP adduct is exactly the same as that of the peptide-6-TGDP adduct. A and B, respectively, represent any of samples taken from a cell culture with and without treatment with 8-TG."}, "[2]": {"test_system": "HME-RhoC cells", "experiment": "Matrigel invasion (cell motility) assay", "assay_type": "cell-based, human", "procedure": "FIG. 5. Determination of cell invasiveness in the presence and absence of 6-thiopurine and/or a redox agent. The top chamber of a Transwell filter (6.5 mm with 8 μm pores, Costar; Corning, N.Y.) was coated with a 10 μL aliquot of 10 mg/mL Matrigel (BD Biosciences, Bedford Mass.), and the lower chamber of the Transwell was filled with either serum-free or serum-containing media. Sample cells (e.g., 6-TG-resistant HME-RhoC cells) were prepared to resuspend cells in a serum-free medium with 0.1% BSA at a concentration of 4×10^5 cells/mL. At this point, neither 6-thiopurine nor GSNO were added to the cells. The sample cells (0.5 mL) were added to the top chamber of a Transwell filter and were incubated for 24 h at 37° C. in a 10% CO2 incubator. The Transwell filters were fixed with methanol, stained with H&E, and cells in the serum-containing samples were counted. The number of cells that had invaded the serum-free medium-containing lower chambers was used as a control background. Results are given as percent invasion over that seen in HME-RhoC cells (100%) and represent mean and standard error values from triplicate measurements.\nFIG. 11. Determination of cell invasiveness in the presence and absence of […] and/or a redox agent. […] The number of cells that had invaded the serum-free medium-containing lower chambers was used as a control background. Results are given as percent invasion over that seen in HME-RhoC cells (100%) and represent mean and standard error values from triplicate measurements.\nFIG. 14. Determination of cell invasiveness in the presence and absence of thiopurines and/or redox agents. […] Western blot analysis representing the total expression of RhoC in these cells also is shown. (B) Experimental procedures for the determination of the time-dependent motility of cells using the QCM Cell Invasion Assay kit in the presence and absence of 6-TG and DETA/NO are described elsewhere herein.\nThe top chamber of a Transwell filter (6.5 mm with 8 μm pores, Costar; Corning, N.Y.) was coated with a 10 μL aliquot of 10 mg/mL Matrigel, and the lower chamber of the Transwell was filled with either serum-free or serum-containing media. Sample cells were prepared to resuspend cells in a serum-free medium with 0.1% BSA at a concentration of 4×10^5 cells/mL. […] The Transwell filters were fixed with methanol, stained with haematoxylin and eosin, and cells in the serum-containing samples were counted. The number of cells that had invaded the serum-free, medium-containing lower chambers was used as a control background."}, "[3]": {"test_system": "MLC", "experiment": "MLC phosphorylation in A7r5 cells", "assay_type": "cell-based, rat", "procedure": "FIG. 20. Determination of RhoA activity and MLC phosphorylation. […] Cell lysates in a buffer containing 1% NP-40, 10 mM EDTA, and 20 mM TrisHCl (pH 7.4) were centrifuged (50,000×g, 20 min) to remove solid matter. (A) The soluble cell extract was then used to perform Western blot analyses for RhoA and the MLC. This cell extract also was used for the co-IP-based ESI-MS analysis (FIG. 6). (B) A RhoA activity assay was colorimetrically determined using cell extract; the assay was performed with the RhoA G-LISA Activation Assay Kit (Cat. No. BK124) (Denver, Colo.). To examine the level of phosphorylation of the MLC, cells were cultured with ˜5 μCi of ^32P in 1 mL of phosphate-free DMEM. The collected cell extract was nutated with resin coupled with a macrophage myosin II antibody at 4° C. for 5 h. Resin was collected by centrifugation, and proteins bound to the resin were washed and eluted with a buffer (80° C.) containing […], 5 mM DTT, and 10 mM TrisHCl (pH 6.8). The immunoprecipitates were then analyzed by SDS-PAGE and autoradiographed. The values of RhoA activity and the MLC phosphorylation determined from untreated cells were set at 100%. […] The data represented in the figure represent the mean values of triplicate measurements, and the vertical error bar indicates standard errors."}, "[4]": {"test_system": "HT1080 cells", "experiment": "Tumor cell apoptosis / viability (MTT)", "assay_type": "cell-based, human", "from_the_text": "(§2) Cell viability was examined employing 3-(4,5-dimethylthiazol-2-yl)-2,5-diphenyl tetrazolium bromide (MTT) (Cabello et al. Int. J. Oncol. 23, 697-704 (2003))."}, "[5]": {"test_system": "T24 cells", "experiment": "Tumor cell apoptosis / viability (MTT)", "assay_type": "cell-based, human", "from_the_text": "as §2"}, "[6]": {"molecular_target": "Rac1 (Homo sapiens, UniProt P63000)", "experiment": "Co-IP ESI-MS of thioguanine nucleotide disulfide adduct in T cells", "assay_type": "cell-based", "parameters": "endogenous in cells", "conditions": "for thioguanine nucleotide-Rac1 disulfide adduct: activated T cells, FIGS. 21, 27", "procedure": "as §1\nFIG. 27. Detection of 8-TGNP adduct from T and A7r5 cells. […] The indicated MS peak at 1476.6 Da represents peptide-8-TGDP adduct; TC^20LLIVFSK-8-TGDP (SEQ ID NO:4). The molecular weight of the peptide-8-TGDP adduct is exactly the same as that of the peptide-6-TGDP adduct."}, "[7]": {"conditions": "6-TG 1 μM every 48 h with DETA/NO or GSNO 10 μM, longer than ~10 days"}, "[8]": {"conditions": "8-TG 1 μM with NO donor (DETA/NO or GSNO 10 μM), not shown"}}}
{"compound": "Nc1nc2nc[nH]c2c(=S)[nH]1", "note": "[6-TG, 6-thioguanine]", "values": [{"measurement": "thioguanine nucleotide-RhoA disulfide adduct (Cys20)", "setting": "[1]", "result": "biologically inactive 6-TGNP-RhoA disulfide adduct"}, {"measurement": "MS peak representing 6-TGNP-RhoA adduct", "setting": "[1]; both 6-TG and NO, intensity not truly quantitative", "result": "increased"}, {"measurement": "cell motility", "setting": "[2]; 6-TG 1 μM alone, three or more consecutive days, FIG. 14A", "result": "gradual but significant diminution of cell motility"}, {"measurement": "invasive cell motility", "setting": "[2]; 6-TG 1 μM with DETA/NO (or GSNO) 10 μM, three days, FIG. 14A", "result": "complete termination of the invasive cell motility"}, {"measurement": "dephosphorylated form of the MLC", "setting": "[3]; 6-TG plus DETA/NO 10 μM, FIG. 20B", "result": "synergistically increases"}, {"measurement": "MLC dephosphorylation", "setting": "[3]; 6-TG, after 3 days, FIG. 20B", "result": "large portion of the MLC in A7r5 cells was observed to have been dephosphorylated"}, {"measurement": "viability of 6-TG-resisting cells", "setting": "[4]; [7]", "result": "decrease in the viability"}, {"measurement": "apoptosis within a day", "setting": "[4]; 6-TG 1 μM, not shown", "result": "most cells underwent apoptosis"}, {"measurement": "initial cells that resisted additional treatment", "setting": "[4]; 6-TG 1 μM, not shown", "result": "~20", "unit": "%"}, {"measurement": "viability of 6-TG-resisting cells", "setting": "[5]; [7]", "result": "decrease in the viability"}, {"measurement": "apoptosis within a day", "setting": "[5]; 6-TG 1 μM, not shown", "result": "most cells underwent apoptosis"}, {"measurement": "initial cells that resisted additional treatment", "setting": "[5]; 6-TG 1 μM, not shown", "result": "~20", "unit": "%"}, {"measurement": "MS peak representing 6-TGNP-Rac1 adduct", "setting": "[6]; T cells, both 6-TG and NO, intensity not truly quantitative", "result": "increased"}, {"measurement": "thioguanine nucleotide-Rac1 disulfide adduct", "setting": "[6]", "result": "has been identified"}]}
{"compound": "Nc1nc2[nH]c(S)nc2c(=O)[nH]1", "note": "[8-TG, 2-amino-8-mercapto-1H-purin-6(9H)-one]", "values": [{"measurement": "thioguanine nucleotide-RhoA disulfide adduct (Cys20)", "setting": "[1]", "result": "biologically inactive 8-TGNPRhoA disulfide adduct"}, {"measurement": "invasive mobility after 8-TG followed by NO donor", "setting": "[2]; 8-TG for a week, then DETA/NO or GSNO 10 μM every 20 or 8 h", "result": "virtually all of the invasive mobility of HME-RhoC cells was immediately terminated"}, {"measurement": "termination of RhoC-mediated cell invasiveness, 8-TG with redox agent versus 6-TG-redox combination", "setting": "[2]; in conjunction with a redox agent", "result": "much more effective than a 6-TG-redox combination"}, {"measurement": "screen of thiopurine analogs on invasive cell mobility", "setting": "[2]; in the presence of NO donor DETA/NO", "result": "most effectively inhibits"}, {"measurement": "decline of invasive cell mobility over 5 days of continuous treatment", "setting": "[2]; only 8-TG 1 μM, FIG. 11", "result": "~60", "unit": "%"}, {"measurement": "decline of invasive cell mobility within a day", "setting": "[2]; only 8-TG 1 μM, FIG. 11", "result": "~10", "unit": "%"}, {"measurement": "screen of 6-TP isomers on MLC phosphorylation", "setting": "[3]; not shown", "result": "dephosphorylates the MLC"}, {"measurement": "viability and anchorage-independent growth", "setting": "[4]; [8]", "result": "did not affect"}, {"measurement": "viability and anchorage-independent growth", "setting": "[5]; [8]", "result": "did not affect"}, {"measurement": "thioguanine nucleotide-Rac1 disulfide adduct", "setting": "[6]", "result": "biologically inactive 8-TGNP-Rac1 disulfide adduct"}]}
